Reference: US11168054B2, “Biaromatic compounds, which are vitamin D analogs” (DSM IP ASSETS B.V., priority 2015, dated 2021)

Biological target: T1, ligand-binding domain of the human VDR linked to the DNA-binding domain of the yeast transcription factor GAL4 (Homo sapiens, UniProt P11473)
T1 construct: expressed in transfected cells; host or cells: HEK293
T1 sequence (P11473 127-423 limits assumed): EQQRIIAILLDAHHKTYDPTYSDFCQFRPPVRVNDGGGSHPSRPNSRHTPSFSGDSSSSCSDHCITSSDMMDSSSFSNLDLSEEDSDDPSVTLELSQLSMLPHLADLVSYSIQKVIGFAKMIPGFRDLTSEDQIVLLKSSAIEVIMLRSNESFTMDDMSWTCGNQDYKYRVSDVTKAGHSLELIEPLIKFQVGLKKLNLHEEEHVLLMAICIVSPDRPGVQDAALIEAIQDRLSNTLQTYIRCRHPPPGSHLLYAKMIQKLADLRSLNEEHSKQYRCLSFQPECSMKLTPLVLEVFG
Assay: Human vitamin D receptor (VDR) agonist activity, cell based GAL4 hybrid luciferase transactivation assay
Settings: HEK293 cells transiently transfected with VDR-LBD/GAL4 hybrid receptor and pFR-Luc reporter; 16 h incubation; luciferase luminescence; read-out: Effective concentrations of half maximal activation (EC50)
Description: By way of example, the human vitamin D receptor (VDR) agonist activity of the claimed compounds can be tested using a cell based transactivation assay in an eukaryotic cell line. After a co-transfection, using a reporter plasmid construct and a hybrid receptor construct containing the ligand-binding domain of the human VDR linked to the DNA-binding domain of the yeast transcription factor GAL4, the cultured cells were stimulated by the VDR agonists. The hybrid VDR-GAL4 receptor binds the VDR agonists and transactivates luciferase reporter expression through the GAL4-response elements in the promoter of the luciferase gene (reporter construct). The VDR agonist binding and transactivation is determined by measuring the luciferase luminescence activity. The effective concentration of half maximal activation (EC50) was determined for the VDR agonists by means of dose-response experiments. The details of the protocol method of this test according to the invention are described in the example section.
Testing of the Human Vitamin D Receptor (VDR) Agonist Activity of the Compounds
The transient transfections were performed in HEK293 cells (ATCC, Molsheim, France) grown in minimum essential medium (Eagle) with Earle's balanced salt solution without L-glutamine and supplemented with 10% fetal bovine serum (Sigma-Aldrich Corp., St. Gallen, Switzerland), 2 mM glutamax (Life Technologies AG, Basel, Switzerland), 0.1 mM non-essential amino acids (Life Technologies), and 1 mM sodium pyruvate (Life Technologies) at 37° C. in 5% CO2. […] The cells were transiently transfected before stimulation the next day at >80% confluence by polyethylene-imine-based transfection. Compound stocks were prepared in DMSO, pre-diluted in PBS (0.45% final DMSO concentration), and added in the respective dilution 5 h after the addition of the transfection mixture onto the cells. The cells were again incubated for additional 16 h before firefly and renilla luciferases activity was measured sequentially in the same cell extract using buffers according to established protocols (Promega AG, Dübendorf, Switzerland). Transfection efficiency was controlled to the pRL-TK renilla luciferase reporter expression.

EC50 [nM]	Compound
210	CCCC1C(O)c2ccc(CCc3cccc(/C(=C/C=C/C(O)(CC)CC)CC)c3)cc2C1O (stereo not shown) [Comp1, reference compound]
14	CC/C(=C\C=C\C(O)(CC)CC)c1cccc(CCc2ccc3c(c2)C(O)C(C)(C)C3O)c1 (stereo not shown) [I-a, (5-(3-((3E,5E)-7-ethyl-7-hydroxynona-3,5-dien-3-yl)phenethyl)-2,2-dimethyl-2,3-dihydro-1H-indene-1,3-diol)]
49	CC/C(=C\C=C\C(O)(CC)CC)c1cccc(CCc2ccc3c(c2)C(O)CC3O)c1 (stereo not shown) [I-c, 5-(3-((3E,5E)-7-ethyl-7-hydroxynona-3,5-dien-3-yl)phenethyl)-2,3-dihydro-M-indene-1,3-diol]
34	CC/C(=C\C=C\C(O)(CC)CC)c1cccc(CCc2ccc3c(c2)C(O)C(C)C3O)c1 (stereo not shown) [I-b, 5-(3-((3E,5E)-7-ethyl-7-hydroxynona-3,5-dien-3-yl)phenethyl)-2-methyl-2,3-dihydro-1H-indene-1,3-diol]
